A value given as a limit tells only on which side of the number the result lay.

The source of these data is patent publication US9000022B2 (Exelixis Patent Company LLC, priority 2005, dated 2015).

The subject of the experiment is LXRα and/or LXRβ. Nature of the experiment: Co-transfection assay (LXRE luciferase reporter, CV-1 cells). The settings on record: tested as described in Example 33; IC50 or EC50 for LXRα and/or LXRβ, isoform not specified; read-out: activity (IC50 or EC50 for LXR). Format: cell-based, human. An excerpt:
To measure the ability of compounds to activate or inhibit the transcriptional activity of LXR in a cell based assay, the co-transfection assay was used. It has been shown that LXR functions as a heterodimer with RXR. For the co-transfection assay, expression plasmids for LXR and RXR are introduced via transient transfection into mammalian cells along with a luciferase reporter plasmid that contains one copy of a DNA sequence that is bound by LXR-RXR heterodimers (LXRE; Willy, P. et. al. 1995). Treatment of transfected cells with an LXR agonist increases the transcriptional activity of LXR, which is measured by an increase in luciferase activity.
CV-1 African Green Monkey Kidney Cells Co-transfection expression plasmids, comprising full-length LXRα (pCMX-h LXRα, LXRβ (pCMX-hLXRβ), or RXRα (pCMX-RXR), reporter plasmid (LXREx1-Tk-Luciferase), and control (pCMX-Galactosidase expression vector) (Willey et al. Genes & Development 9 1033-1045 (1995)). Transfection reagent such as FuGENE6 (Roche). 1× Cell lysis buffer (1% Triton X 100 (J T Baker X200-07), 10% Glycerol (J T Baker M778-07), 5 mM Ditriotreitol (Quantum Bioprobe DTT03; add fresh before lysing), 1 mM EGTA (Ethylene Glycol-bis(B-Amino ethyl ether)-N,N,N′,N′-Tetracetic Acid) (Sigma E-4378), 25 mM Tricine (ICN 807420) pH 7.8) 1× Luciferase assay buffer (pH at 7.8) (0.73 mM ATP, 22.3 mM Tricine, 0.11 mM EDTA, 33.3 mM DTT) 1× Luciferrin/CoA (11 mM Luciferin, 3.05 mM Coenzyme A, 10 mM HEPES)
CV-1 cells were prepared 24 hours prior to the experiment by plating them into T-175 flasks or 500 cm^2 dishes in order to achieve 70-80% confluency on the day of the transfection. The number of cells to be transfected was determined by the number of plates to be screened. Each 384 well plate requires 1.92×10^6 cells or 5000 cells per well. DNA Transfection Reagent was prepared by mixing the required plasmid DNAs with a cationic lipid transfection reagent FuGENE6 (Roche) by following the instructions provided with the reagents. Optimal DNA amounts were determined empirically per cell line and size of vessel to be transfected. 10-12 mL of media was added to the DNA Transfection Reagent and this mixture was added to the cells after aspirating media from the T175 cm^2 flask. Cells were then incubated at least 5 hours at 37° C. to prepare screening cells.
Luciferase assay reagent was prepared by combining before use (per 10 mL): 10 mL 1× Luciferase assay buffer; 0.54 mL of 1× Luciferrin/CoA; 0.54 mL of 0.2 M Magnesium sulfate
Assay plates were prepared by dispensing 5 μL, of compound per well of a 384 well plate to achieve final compound concentration of 10 μM and no more than 1% DMSO. Media was removed from the screening cells, the cells trypsinized, harvested cells by centrifugation, counted, and plated at a density of approximately 5000 cells per well in the 384 well assay plate prepared above in a volume of about 45 μL. Assay plates containing both compounds and screening cells (50 μL in total volume) were incubated for 20 hours at 37° C.
After incubation with compounds, media was removed from the cells and lysis buffer (30 μL/well) added. After 30 minutes at ambient temperature, luciferase assay buffer (30 μL/well) was added and the assay plates read on a luminometer (PE Biosystems Northstar reader with on-board injectors, or equivalent). Plates were read immediately after addition of luciferase assay buffer.
The LXR/LNRE co-transfection assay can be used to establish the EC50/IC50 values for potency and percent activity or inhibition for efficacy. Efficacy defines the activity of a compound relative to a high control ((N-(3-((4-fluorophenyl)-(naphthalene-2-sulfonyl)amino)propyl)-2,2-dimethylpropionamide)) or a low control (DMSO/vehicle). The dose response curves are generated from an 8 point curve with concentrations differing by ½ LOG units. Each point represents the average of 4 wells of data from a 384 well plate. […]
For orientation: A reporter such as luciferase makes a cellular process visible.
`CC(C)(O)c1cn(-c2ccc(-c3ccc(C(=O)NCc4ccccc4)c(S(C)(=O)=O)c3)cc2Cl)c(-c2c(F)cccc2Cl)n1` [Example 80, N-benzyl-3′-chloro-4′-(2-(2-chloro-6-fluorophenyl)-4-(2-hydroxypropan-2-yl)-1H-imidazol-1-yl)-3-(methyl-sulfonyl)biphenyl-4-carboxamide]: the IC50 or EC50 (potency, activation or inhibition) lay in the range of 1000 to 10000 nM.
Under `CCS(=O)(=O)c1cccc(-c2ccc(-n3cc(C(C)(C)O)nc3-c3c(F)cccc3Cl)c(C)c2)c1` [Example 188, 2-(2-(2-chloro-6-fluorophenyl)-1-(3′-(ethylsulfonyl)-3-methylbiphenyl-4-yl)-1H-imidazol-4-yl)propan-2-ol] stands less than 1000 nM; under `CC(C)(CO)NC(=O)c1cn(-c2ccc(-c3cccc(S(C)(=O)=O)c3)cc2)c(-c2c(Cl)cccc2Cl)n1` [Example 481, 2-(2,6-dichlorophenyl)-N-(1-hydroxy-2-methylpropan-2-yl)-1-(3′-(methylsulfonyl)biphenyl-4-yl)-1H-imidazole-4-carboxamide], less than 1000 nM.
For `C=C(C)c1cn(-c2ccc(-c3cccc(S(=O)(=O)CC)c3)cc2)c(-c2cccc(Cl)c2Cl)n1` [Example 77, 2-(2,3-dichlorophenyl)-1-(3′-(ethylsulfonyl)biphenyl-4-yl)-4-(prop-1-en-2-yl)-1H-imidazole], the IC50 or EC50 (potency, activation or inhibition) was less than 1000 nM.
For `Cc1cc(-c2cccc(S(C)(=O)=O)c2)cc(Cl)c1-n1cc(C(C)(C)O)nc1-c1ccccc1Cl` [Example 168, 2-(1-(3-chloro-5-methyl-3′-(methyl-sulfonyl)biphenyl-4-yl)-2-(2-chlorophenyl)-1H-imidazol-4-yl)propan-2-ol] the value was 1000 to 10000 nM; for `CS(=O)(=O)c1cccc(-c2ccc(-n3cc(C(F)(F)F)nc3-c3ccccc3Cl)nc2)c1` [Example 370, 2-[2-(2-chlorophenyl)-4-(trifluoro-methyl)-1H-imidazol-1-yl]-5-[3-(methylsulfonyl)phenyl]pyridine], less than 1000 nM; for `CC(C)(O)c1cn(-c2ccc(-c3cccc(S(C)(=O)=O)c3)cc2)c(Cc2cc(Cl)ccc2F)n1` [Example 474, 2-(2-(5-chloro-2-fluorobenzyl)-1-(3′-(methylsulfonyl)biphenyl-4-yl)-1H-imidazol-4-yl)propan-2-ol], less than 1000 nM.
Under `CCS(=O)(=O)c1cccc(-c2ccc(-n3cc(C(C)(C)O)nc3-c3cccc(Cl)c3C)c(C)c2)c1` [Example 190, 2-(2-(3-chloro-2-methylphenyl)-1-(3′-(ethylsulfonyl)-3-methylbiphenyl-4-yl)-1H-imidazol-4-yl)propan-2-ol] stands less than 1000 nM.
Under `CC(C)(O)c1cn(-c2ccc(-c3ccc(CO)c(S(C)(=O)=O)c3)cc2Cl)c(-c2c(F)cccc2Cl)n1` [Example 147, 2-(1-(3-chloro-4′-(hydroxymethyl)-3′-(methylsulfonyl)biphenyl-4-yl)-2-(2-chloro-6-fluorophenyl)-1H-imidazol-4-yl)propan-2-ol] stands less than 1000 nM; under `CCS(=O)(=O)c1cccc(-c2ccc(-n3cc(C(C)(C)O)nc3-c3cccc(F)c3Cl)cc2)c1` [Example 95, 2-(2-(2-chloro-3-fluorophenyl)-1-(3′-(ethylsulfonyl)biphenyl-4-yl)-1H-imidazol-4-yl)propan-2-ol], less than 1000 nM.
Consider `CC(=O)c1cn(-c2ccc(-c3cccc(S(C)(=O)=O)c3)cc2)c(-c2ccccc2F)n1` [Example 381, 1-{2-(2-fluorophenyl)-1-[3′-(methylsulfonyl)biphenyl-4-yl]-1H-imidazol-4-yl}ethanone], for which the IC50 or EC50 (potency, activation or inhibition) was in the range of 1000 to 10000 nM.
For the compound `CC(C)(O)c1cn(-c2ccc(-c3cccc(S(C)(=O)=O)c3)cc2F)c(-c2c(F)cccc2Cl)n1` [Example 134, 2-(2-(2-chloro-6-fluorophenyl)-1-(3-fluoro-3′-(methylsulfonyl)biphenyl-4-yl)-1H-imidazol-4-yl)propan-2-ol], the IC50 or EC50 (potency, activation or inhibition) is less than 1000 nM.
